Laboratory results: patent US6146628A, “Biotherapeutic agents comprising recombinant PAP and PAP mutants” (priority 1995, dated 2000)
Where two headings read alike, the source gives them in different places.

Assays:
[1] = tested on: clinical HIV-1 strains (AT-101, AT-328, AT-332); assay type: in vivo, Hu-PBL-SCID mice
Excerpt: Hu-PBL-SCID mice were generated by reconstituting SCID mice by intraperitoneal injection of 10×10^6 peripheral blood mononuclear cells from a single EBV-seronegative volunteer donor. Two weeks after inoculation of cells, mice were challenged by intraperitoneal injection of 1.47.-7×10^4 median tissue culture infectious doses (TCID50) of cell free virus. Three different clinical HIV-1 strains (AT-101, AT-328, AT-332) were used. […] SCID mice were infected with HIV-1 isolates in a Biosafety Level 3 containment facility and all manipulations were performed in a biosafety cabinet. Non-toxic doses of anti-CD4-PAP (20% -50% of LD10) were administered intraperitoneally by injecting half of the total dose as a bolus and delivering the remainder i.p. over 2 weeks using Alzet micro-osmotic pumps. […] Two weeks after infection with HIV-1, mice were electively killed and fresh peritoneal lavage cells as well as spleen cells were isolated, cocultured with phytohemagglutinin(PHA)-stimulated human peripheral blood mononuclear cells from an HIV-1 antibody negative donor, and culture supernatants were tested every 3-4 days for a maximum of 28 days for the presence of HIV-1 antigen with a commercially available enzyme immunoassay (Abbott Laboratories, North Chicago, Ill.) that detects primarily the core p24 antigen of HIV-1, as previously described by Goudsmit et al. in J. Infectious Diseases, 155, 558 (1987). In addition to this culture method, we also isolated the DNA from the peritoneal lavage cells as well as splenocytes for detection of HIV-1 DNA by PCR amplification of a 115 b.p. sequence in the gag region of the HIV-1 genome using two 29-base oligonucleotide primers, SK38 and SK39, that flank the region to be amplified. […] DNA samples were also examined for the presence of human DNA by PCR amplification of a 110-bp fragment from the first exon of the human β-globin gene using two 20-base oligonucleotide primers, PCO3 and PCO4, that flank the region to be amplified, as previously described in detail by Chelstrom et al. Blood, 84, 20 (1994). […]

[2] = in vitro; assay type: cell-based; conditions: cells exposed to zidovudine; 22 assays; 90.9% for cells not exposed; read-out: cell viability
Excerpt: (§1) A total of 22 clinical HIV-1 isolates were studied, including 8 isolates from four seropositive asymptomatic individuals, 6 isolates from three patients with the AIDS-related complex, and 8 isolates from four patients with AIDS (two pairs of zidovudine-resistant and zidovudine-susceptible reference isolates were also included in this group). Erice et al., Antimicrob. Ag. Chemother., 37, 835 (1993). Fifteen isolates were from untreated individuals, and seven isolates were obtained after 24 to 104 weeks of treatment with zidovudine, alone or alternating with zalcitabine. […] The mean αCD4-PAP IC50 s in this group were 11×10^-3 nM (range, 2.5×10^-3 to 25×10^-3 nM) for isolates from zidovudine-untreated individuals and 9×10^-3 nM for the isolate obtained after 48 weeks of zidovudine therapy. […] The mean αCD4-PAP values in this group were 137×10^-3 nM (range, 39×10^-3 to 212×10^-3 nM) for isolates from untreated individuals and 19×10^-3 nM (range, 2×10^-3 to 42×10^-3 nM) for isolates from treated patients. […] The mean αCD4-PAP values were 43×10^-3 nM for the 17 isolates susceptible to zidovudine and 19×10^-3 nM for the 5 isolates that were resistant to zidovudine. All of the HIV-1 isolates studied had IC50 s greater than 0.5 nM for unconjugated PAP, the αCD19-PAP immunoconjugate, and monoclonal antibody αCD4. […]

[3] = tested on: clinical HIV-1 isolates; assay: In vitro susceptibility of clinical HIV-1 isolates to zidovudine (IC50); assay type: cell-based
Excerpt: as §1, with “αCD4. In 18 αCD4-PAP experiments, cell viability ranged from 97.5% (for cells not exposed to the immunoconjugate)to 87.2% (for cells exposed to 5 nM αCD4-PAP). Cell viabilities in 22 zidovudine susceptible assays ranged from 90.9% (cells not exposed to zidovudine) to 90.75% (cells exposed to […] zidovudine).” for “αCD4.”
The in vitro susceptibility of clinical HIV-1 isolates to the PAP, PAP mutants, and anti-CD4 PAP immunoconjugates will be measured and compared using an RT inhibition assay, as described by Schwartz et al., cited supra. In brief, 5×10^6 PHA-stimulated seronegative donor peripheral blood mononuclear cells will be infected with HIV-1 by incubation in 1 mL of a stock virus preparation for 3 h at 37° C./5% CO2. After infection, cells will be transferred to 96-well tissue culture plates (40 μL/well in triplicate wells) containing different concentrations of PAP or αCD4 PAP diluted in RPMI 1640 supplemented with 20% fetal calf serum, 5% interleukin 2 (Cellular Products), 160 U/mL penicillin, and 160 μg/mL streptomycin. αCD4 PAP treatment will continue for 5 days to mimic the FDA-approved clinical protocol of the ongoing phase II PAP immunoconjugate trials for treatment of B-lineage lymphoid malignancies (BB-IND #3864). At the end of the incubation period, culture supernatants will be removed and assayed for RT activity using the method of Schwartz and colleagues. Schwartz et al., cited supra. IC50 values (concentration of drug needed to reduce RT activity by 50%) will be calculated from the RT activities of untreated versus treated samples using the SAS Regression Analysis Program (SAS Institute, Cary, N.C.). ZDV resistance will be defined as an ZDV-IC50value of greater than 1 μM. Standard statistical methods will be used including Student's t-tests to compare the αCD4 PAP sensitivity of ZDV-resistant and ZDV-sensitive HIV-1 isolates. All computations will be performed using an updated statistics program for the Macintosh (Statworks Statistics Program, Cricket Software, Philadelphia, Pa.).

[4] = ZDV in the water at 1 mg/mL, of the remaining 7 of 10 mice

Structure (SMILES): Cc1cn([C@H]2C[C@H](N=[N+]=[N-])[C@@H](CO)O2)c(=O)[nH]c1=O [zidovudine, 3'-azido-3'-deoxythymidine]
- HIV-1 negative mice ([1]; ZDV in the water at 1 mg/mL (average 200 mg/kg/day), two weeks after infection, culture and PCR): 3 of 10
- mice culture-negative but PCR-positive [1, 4]: 3
- mice culture-positive and PCR positive [1, 4]: 4
- viability [2]: 90.8%
- IC50 ([3]; Human immunodeficiency virus 1, one resistant isolate, IC50 could not be calculated): > 4000 nM
- IC50 ([3]; Human immunodeficiency virus 1, read-out: mean IC50, overall, 5 isolates resistant to zidovudine): 3720 nM
- IC50 ([3]; Human immunodeficiency virus 1, read-out: mean IC50, overall, 17 isolates susceptible to zidovudine): 117 nM
- IC50 ([3]; Human immunodeficiency virus 1, read-out: mean zidovudine IC50, AIDS-related complex, four zidovudine susceptible isolates): 106 nM
- IC50 ([3]; Human immunodeficiency virus 1, read-out: mean zidovudine IC50, isolates from seropositive asymptomatic, zidovudine-untreated patients): 150 nM
- IC50 ([3]; Human immunodeficiency virus 1, read-out: mean zidovudine IC50, patients with AIDS, five zidovudine susceptible strains): 105 nM
- IC50 ([3]; Human immunodeficiency virus 1, read-out: mean zidovudine IC50, strains from zidovudine-treated patients (7 isolates, 24 to 104 weeks of treatment)): 2500 nM
- IC50 ([3]; Human immunodeficiency virus 1, read-out: mean zidovudine IC50, strains from zidovudine-untreated individuals (15 isolates)): 126 nM
- IC50 ([3]; Human immunodeficiency virus 1, read-out: zidovudine IC50, one isolate from a seropositive asymptomatic individual after 48 weeks of zidovudine therapy): 14 nM
- IC50 ([3]; Human immunodeficiency virus 1, read-out: zidovudine IC50 range, AIDS-related complex, four zidovudine susceptible isolates): 24 to 150 nM
- IC50 ([3]; Human immunodeficiency virus 1, read-out: zidovudine IC50 range, isolates from seropositive asymptomatic, zidovudine-untreated patients): 1 to 607 nM
- IC50 ([3]; Human immunodeficiency virus 1, read-out: zidovudine IC50 range, patients with AIDS, five zidovudine susceptible strains): 44 to 166 nM
- IC50 ([3]; Human immunodeficiency virus 1, read-out: zidovudine IC50 range, strains from zidovudine-treated patients (7 isolates)): 14 to 6500 nM
- IC50 ([3]; Human immunodeficiency virus 1, read-out: zidovudine IC50 range, strains from zidovudine-untreated individuals (15 isolates)): 1 to 607 nM
- IC50 ([3]; Human immunodeficiency virus 1, read-out: zidovudine IC50s, AIDS-related complex, two resistant isolates obtained after 52 weeks of therapy): 1710 to 2140 nM
- susceptibility to zidovudine ([3]; patients with AIDS, three isolates after 24 to 104 weeks of zidovudine, alone or alternating with zalcitabine): highly resistant to zidovudine
